Laboratory results published in patent publication US10221163B2 (priority 2015, dated 2019).
Where two headings read alike, the source gives them in different places.

Assays:
[1] = target: IMP-1 (Serratia marcescens, UniProt P52699); assay: biochemical; format: biochemical; details: fluorescence assay, CCF2-FA substrate, 2 pM enzyme, 2 hours at 25° C.; read-out: IMP-1 IC50
Summary of the method: (§1)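 Fluorescence assay, CCF2-FA substrate (cephalosporin core linking 7-hydroxycoumarin to fluorescein); inhibitor + MBL + substrate, 2 h, 25° C. IC50 by 4-parameter fit, semi-log plot.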

[2] = target: NDM-1 (Klebsiella pneumoniae, UniProt C7C422); assay: biochemical; format: biochemical; details: fluorescence assay, CCF2-FA substrate, 1 pM enzyme, 2 hours at 25° C.; read-out: NDM-1 IC50
Summary of the method: as §1

[3] = target: VIM-1 (Pseudomonas aeruginosa (strain ATCC 15692 / DSM 22644 / CIP 104116 / JCM 14847 / LMG 12228 / 1C / PRS 101 / PAO1), UniProt A0A0F7KYQ8); assay: biochemical; details: CCF2-FA substrate, 30 pM enzyme, 2 hours at 25° C.
Summary of the method: as §1

[4] = tested on: Escherichia coli expressing NDM-1 (CLB30005, CLB30016); format: cell-based; details: NDM-1 strain, with imipenem 1 μg/ml, 95% inhibition of growth
Summary of the method: (§2)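 Clinical strains grown overnight on blood agar at 35°C, colonies suspended in saline, diluted 1:100 into 1.1×CAMHB. Test compound titrated with imipenem at 1 μg/ml; incubated 22–24 h at 35°C, growth read by absorbance.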

[5] = tested on: Klebsiella pneumoniae expressing VIM-1 (IHMA599644); format: cell-based; details: VIM-1 strain IHMA599644, with imipenem 1 μg/ml, 95% inhibition of growth
Summary of the method: as §2

[6] = tested on: Serratia marcescens expressing IMP-1 (CL5741); format: cell-based; details: IMP-1 strain CL5741, with imipenem 1 μg/ml, 95% inhibition of growth
Summary of the method: as §2

[7] = tested on: Pseudomonas aeruginosa efflux+ (MB9798), IMP-1; format: cell-based; parameters: Concentration of metallo-β-lactamase inhibitor which restores susceptibility of efflux + (MB9798) strain to imipenem: unit not given here; details: efflux+ MB9798; imipenem at 2 μg/mL; in the presence of a class A, C, D serine β-lactamase inhibitor closely related to relebactam
Summary of the method: (§3)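 Steps: add fixed imipenem and/or ceftazidime (usually CLSI breakpoint) and fixed AmpC-directed class A/C inhibitor to microbroth MIC wells; titrate MBL inhibitor; record concentration regaining susceptibility for each PAO1-derived strain; divide efflux+ by efflux− value.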

[8] = tested on: Pseudomonas aeruginosa efflux− (MB9799), IMP-1; format: cell-based; details: efflux− MB9799; imipenem at 2 μg/mL; in the presence of a class A, C, D serine β-lactamase inhibitor closely related to relebactam
Summary of the method: as §3

[9] = tested on: Pseudomonas aeruginosa MB9798 vs MB9799; details: fold difference between efflux+ (MB9798) and efflux− (MB9799) strains; imipenem at 2 μg/mL
Summary of the method: as §3

[10] = fluorescence assay, read-out: VIM-1 IC50

IMP-1, sequence (P52699 whole entry, looked up, species assumed): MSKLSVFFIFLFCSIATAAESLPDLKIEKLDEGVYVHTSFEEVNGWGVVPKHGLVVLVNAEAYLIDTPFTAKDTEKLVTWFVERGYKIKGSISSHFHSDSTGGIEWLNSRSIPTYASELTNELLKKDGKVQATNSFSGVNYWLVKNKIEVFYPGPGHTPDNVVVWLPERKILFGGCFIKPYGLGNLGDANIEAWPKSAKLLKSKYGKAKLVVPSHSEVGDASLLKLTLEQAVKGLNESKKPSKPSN
NDM-1, sequence (C7C422 whole entry, looked up, species assumed): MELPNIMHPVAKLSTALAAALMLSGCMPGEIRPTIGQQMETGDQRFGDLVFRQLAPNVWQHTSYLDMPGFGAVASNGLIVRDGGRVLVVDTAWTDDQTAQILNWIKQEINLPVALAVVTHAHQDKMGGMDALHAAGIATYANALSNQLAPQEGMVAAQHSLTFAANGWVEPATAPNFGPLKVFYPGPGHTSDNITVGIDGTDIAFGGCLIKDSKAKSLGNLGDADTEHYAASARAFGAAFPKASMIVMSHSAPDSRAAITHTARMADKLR

Row | Compound | IC50 [1] [nM] | IC50 [2] [nM] | IC50 [3, 10] [nM] | Escherichia coli MITC95 [4] [µM] | Klebsiella pneumoniae MITC95 [5] [µM] | Serratia marcescens MITC95 [6] [µM] | Concentration of metallo-β-lactamase inhibitor which restores susceptibility of efflux + (MB9798) strain to imipenem [7] | Concentration of metallo-β-lactamase inhibitor which restores susceptibility of efflux − (MB9799) strain to imipenem [8] | Efflux ratio [9] | IC50 ([3]; VIM-1 IC50, fluorescence assay) [nM]
1 | NCc1nc2cc(-c3ccc(S(=O)(=O)NC[C@@H](O)CN)c(S(N)(=O)=O)c3-c3nn[nH]n3)ccc2[nH]1 [Example 465] | 1.15 | 0.223 | 0.133 | 0.7813 | 1.563 | 1.563 | 0.7813 | 0.7813 | 1.00 | 
2 | NCCNS(=O)(=O)c1ccc(-c2ccc3[nH]c(CN)nc3c2)c(-c2nn[nH]n2)c1S(N)(=O)=O [Example 466, N1-(2-aminoethyl)-4-(2-(aminomethyl)-1H-benzo[d]imidazol-5-yl)-3-(2H-tetrazol-5-yl)benzene-1,2-disulfonamide] | 0.967 | 0.359 | 0.138 | 0.7813 | 1.563 | 1.563 | 0.7813 | 0.7813 | 1.00 | 
3 | Cc1cc(-c2ccc(S(=O)(=O)NC[C@@H](O)CN)c(S(N)(=O)=O)c2-c2nn[nH]n2)cnc1N [Example 468, (S)-N1-(3-amino-2-hydroxypropyl)-4-(6-amino-5-methylpyridin-3-yl)-3-(2H-tetrazol-5-yl)benzene-1,2-disulfonamide] | 0.569 | 0.133 | 0.0869 | 0.3906 | 3.125 | 0.7813 | 1.563 | 0.7813 | 2.00 | 
4 | NC[C@H](O)CNS(=O)(=O)c1ccc(-c2cnc(N)c(F)c2)c(-c2nn[nH]n2)c1S(N)(=O)=O [Example 469, (S)-N1-(3-amino-2-hydroxypropyl)-4-(6-amino-5-fluoropyridin-3-yl)-3-(2H-tetrazol-5-yl)benzene-1,2-disulfonamide] | 0.554 | 0.153 |  | 1.563 | 3.125 | 3.125 | 0.7813 | 0.7813 | 1.00 | 0.0868
5 | NS(=O)(=O)c1c(S(=O)(=O)N[C@@H]2CCNC2)ccc(-c2cccc(Nc3nc(CO)cs3)c2)c1-c1nn[nH]n1 [Example 470, (R)-3′-((4-(hydroxymethyl)thiazol-2-yl)amino)-N4-(pyrrolidin-3-yl)-2-(2H-tetrazol-5-yl)-[1,1′-biphenyl]-3,4-disulfonamide] | 0.134 | 0.0496 | 0.11 | 0.7813 | 3.125 | 1.563 | 1.563 | 0.7813 | 2.00 | 
